Results as given in US20210130417A1, “SYSTEMS AND METHODS FOR DESIGNING SYNTHETIC ANTIMICROBIAL PEPTIDES” (University of Notre Dame du Lac, priority 2017, published 2021).
≈ marks a conversion by molar mass, not a printed value. Residues, ends and D or L forms follow the SMILES beside them.

Tests used:
[1] = test system: sheep red blood cells (RBCs)
Description: For hemolysis assays, 100 μL of sheep red blood cells (RBCs) were washed three times in cold PBS (Thermo Fischer). Washed cells were resuspended in 25 mL of PBS. Triton, PBS, or peptide in 10% DMSO/PBS were added to 180 μL of resuspended RBCs and incubated at 37° C. for 1 h. Samples were read at 450 nm. Data was expressed as percent hemolysis by relativizing to the Triton and PBS controls.

[2] = test system: Streptococcus pyogenes M1T1
Excerpt: (§1) E. coli BL-21 frozen stock culture was purchased from Thermo Fischer. Pseudomonas aeruginosa PAO1 frozen stock culture was obtained from the Shrout Laboratory at the University of Notre Dame. Pseudomonas syringae frozen stock culture was obtained from the Innes Laboratory at Indiana University. Xanthomonas axonopodis pathovar Starr and Garces pathovar phaseoli (ATCC 9563) frozen stock culture was purchased from the ATCC. Streptococcus pyogenes M1T1 frozen stock culture was obtained from the lab of Dr. Victor Nizet, University of California San Diego. A methicillin resistant Staphylococcus aureus JKD frozen stock culture was obtained from the lab of Dr. Timothy Stinear, University of Melbourne.
(§2) The E. coli, P. aeruginosa, and P. syringae bacterial strains were routinely grown in LB broth (EMD Chemicals, Gibbstown, N.J.). S. aureus and S. pyogenes were routinely grown in Todd Hewitt broth (Neogen Corporation, Lansing, Mich.). X. axonopodis was routinely grown in Nutrient Broth (Sigma-Aldrich Co., St. Louis, Mo.). P. syringae and X. axonopodis were grown at room temperature without agitation. All other bacteria were grown at 37° C. with agitation.
(§3) Overnight bacterial cultures were diluted to an OD of 0.01. […] and 10 μL of 10× peptide or vehicle were added to the wells of a 96-well microtiter plate for a final 1× concentration. Bacteria were grown in desired growth conditions in a Synergy H1 Microplate Reader (Biotek, Winooski, Vt.). For MIC, serial two-fold dilutions of the peptides were used. MIC was determined as the concentration of peptide that prevented overnight growth as indicated by OD 600. For peptide screening, 8 μM or 4 μM peptide was screened against various bacteria. Peptides that inhibited overnight growth were selected for further study.

[3] = test system: Pseudomonas aeruginosa PAO1
Excerpt: as §1, §2, §3

E. coli BL-21 = type: cell-based, Escherichia coli
Description: The E. coli, P. aeruginosa, and P. syringae bacterial strains were routinely grown in LB broth (EMD Chemicals, Gibbstown, N.J.). […] All other bacteria were grown at 37° C. with agitation.
Overnight bacterial cultures were diluted to an OD of 0.01. μL of diluted culture and 10 μL of 10× peptide or vehicle were added to the wells of a 96-well microtiter plate for a final 1× concentration. Bacteria were grown in desired growth conditions in a Synergy H1 Microplate Reader (Biotek, Winooski, Vt.). For MIC, serial two-fold dilutions of the peptides were used. MIC was determined as the concentration of peptide that prevented overnight growth as indicated by OD 600.

HaCaT cells = experiment: Ethidium homodimer cytotoxicity assay; type: cell-based, human
Description: Medium was aspirated, and cells were washed with PBS. […] Cells were incubated with peptide for 16 h. Medium was aspirated, and cells were washed with PBS. […] The fluorescence was read again. […] Washed cells were resuspended in 25 mL of PBS. […] Samples were read at 450 nm.

SMILES | hemolysis of library peptides ([1]; compared to the PBS control) | MIC S. pyogenes [2] [µM] | MIC P. aeruginosa [3] [µM] | MIC E. coli (E. coli BL-21) [µM] | hemolytic activity ([1]; at the concentrations tested) | cytotoxicity, dose dependence (HaCaT cells; HaCaT cells treated for 16 h, up to 32 μM) | cytotoxicity at the MIC for X. axonopodis (HaCaT cells; HaCaT cells, 16 h, 8 μM peptide) | percent of cytotoxicity (HaCaT cells; HaCaT cells, 16 h, 32 μM peptide (highest dose), vehicle control 17%) [%]
CC[C@H](C)[C@H](NC(=O)[C@H](CCCCN)NC(=O)[C@H](CCC(=O)O)NC(=O)[C@H](CCCCN)NC(=O)[C@H](Cc1c[nH]c2ccccc12)NC(=O)[C@H](C)N)C(=O)N[C@@H](CCCNC(=N)N)C(=O)N[C@@H](CCCCN)C(=O)N[C@@H](CCCCN)C(=O)N[C@@H](CC(C)C)C(=O)N[C@@H](CCCCN)C(=O)N[C@@H](CC(N)=O)C(=O)N[C@@H](CCC(=O)O)C(=O)N[C@H](C(=O)N[C@@H](CCCCN)C(=O)N[C@@H](CCCCN)C(=O)N[C@@H](CCCCN)C(=O)N[C@@H](Cc1c[nH]c2ccccc12)C(=O)N[C@@H](CCCNC(=N)N)C(=O)N[C@@H](CCCCN)C(=O)N[C@@H](C)C(=O)N[C@H](C(=O)N[C@H](C(=O)N[C@@H](C)C(=O)N[C@@H](Cc1c[nH]c2ccccc12)C(=O)O)[C@@H](C)CC)C(C)C)[C@@H](C)CC [Peptide 96] (H-AWKEKIRKKLKNEIKKKWRKAVIAW-OH) | no significant changes in hemolysis | 8 | 8 | 2 (≈ 6.36 µg/mL) |  |  |  | 
CC[C@H](C)[C@H](NC(=O)[C@H](CC(C)C)NC(=O)[C@H](CO)NC(=O)[C@@H](N)CC(C)C)C(=O)N[C@@H](C)C(=O)N[C@@H](C)C(=O)N[C@@H](C)C(=O)NCC(=O)N[C@@H](CCCCN)C(=O)N[C@@H](CCC(=O)O)C(=O)N[C@H](C(=O)N[C@H](C(=O)N[C@@H](CCCNC(=N)N)C(=O)N[C@@H](CCC(N)=O)C(=O)N[C@@H](Cc1ccc(O)cc1)C(=O)N[C@@H](CC(C)C)C(=O)N[C@@H](CCCCN)C(=O)N[C@@H](CC(N)=O)C(=O)N[C@@H](CCC(=O)O)C(=O)N[C@H](C(=O)N[C@@H](CCCCN)C(=O)N[C@@H](CCCCN)C(=O)N[C@@H](CCCCN)C(=O)NCC(=O)N[C@@H](CCCNC(=N)N)C(=O)N[C@@H](CCCCN)C(=O)N[C@@H](C)C(=O)N[C@H](C(=O)N[C@H](C(=O)N[C@@H](C)C(=O)N[C@@H](Cc1c[nH]c2ccccc12)C(=O)O)[C@@H](C)CC)C(C)C)[C@@H](C)CC)[C@@H](C)CC)[C@@H](C)O [syn-safencin] (H-LSLIAAAGKETIRQYLKNEIKKKGRKAVIAW-OH) |  |  |  |  | mild hemolytic activity | slight dose-dependent increase in cytotoxicity | no significant increase in cytotoxicity | ~25
